19 molecules from patent publication US7345070B2, “Peroxisome proliferator activated receptor agonists” (Eli Lilly and Company, priority 2000, dated 2008) can be followed below.

One experiment has as its system HuapoAI transgenic mice. Nature of the experiment: Evaluation of triglyceride and cholesterol level in HuapoAI transgenic mice. The experiment is classed as in vivo. As to conditions: Mus musculus, 168 h, human apoAI transgenic mice, 30 mg/kg oral gavage daily for 7 days; for change in vivo at 30 mg/kg: FPLC area under the curve, over mice receiving vehicle, read-out: % HDLc Increase; for inhibition in vivo at 30 mg/kg: serum 3 h after dosing, read-out: Reduction in Triglyceride Serum Level. The method, then:
After an acclimation period of 2 weeks, animals were individually identified by ear notches, weighed, and assigned to groups based on body weight. Beginning the following morning, mice were dosed daily by oral gavage for 7 days using a 20 gauge, 1½″ curved disposable feeding needle (Popper & Sons). […] Prior to termination on day 7, mice were weighed and dosed. Three hours after dosing, animals were anesthetized by inhalation of isoflurane (2-4%; Abbott Laboratories, Chicago, Ill.) and blood obtained via cardiac puncture (0.7-1.0 ml). Whole blood was transferred to serum separator tubes (Vacutainer SST), chilled on ice, and permitted to clot. Serum was obtained after centrifugation at 4° C. and frozen until analysis for triglycerides, total cholesterol, compound levels, and serum lipoprotein profile by fast protein liquid chromatography (FPLC) coupled to an inline detection system. After sacrifice by cervical dislocation, the liver, heart and epididymal fat pads were excised and weighed.
The absorbance of the dye produced is linearly related to the analyte in the sample. The assays were further modified in our laboratory for use in a 96 well format. […] An additional aliquot of sample, pipetted to a third well and diluted in 200 μl water, provided a blank for each specimen. […] Sample absorbances were compared to a standard curve (100-800, 10-500, and 100-400 mg/dl for glucose, triglycerides and total cholesterol, respectively). […] All samples from an experiment were assayed at the same time to minimize inter-assay variability.
Serum lipoproteins were separated and cholesterol quantitated with an in-line detection system. Sample was applied to a Superose® 6 HR 10/30 size exclusion column (Amersham Pharmacia Biotech) and eluted with phosphate buffered saline-EDTA at 0.5 ml/min. […] The change in voltage corresponding to change in cholesterol concentration was plotted vs time and the area under the curve corresponding to the elution of VLDL, LDL and HDL was calculated using Perkin Elmer Turbochrome software.

The next experiment deals with huPPARα. Briefly: Cotransfection assay in CV-1 cells, huPPARα. The experiment is classed as cell-based, human. The conditions noted are these: GAL4 chimeric system, relative to PPARα agonist reference molecule. The protocol: DNA-dependent binding (ABCD binding) was carried out using SPA technology with PPAR receptors. Tritium-labeled PPARα and PPARγ agonists were used as radioligands for generating displacement curves and IC50 values with compounds of the invention. Cotransfection assays were carried out in CV-1 cells. The reporter plasmid contained an acylCoA oxidase (AOX) PPRE and TK promoter upstream of the luciferase reporter cDNA. Appropriate PPARs and RXRα were constitutively expressed using plasmids containing the CMV promoter. […] In order to eliminate such interference, a GAL4 chimeric system was used in which the DNA binding domain of the transfected PPAR was replaced by that of GAL4, and the GAL4 response element was utilized in place of the AOX PPRE. Cotransfection efficacy was determined relative to PPARα agonist and PPARγ agonist reference molecules. Efficacies were determined by computer fit to a concentration-response curve, or in some cases at a single high concentration of agonist (10 μM). For binding or cotransfection studies with receptors other than PPARs, similar assays were carried out using appropriate ligands, receptors, reporter constructs, etc., for that particular receptor.
These studies were carried out to evaluate the ability of compounds of the invention to bind to and/or activate various nuclear transcription factors, particularly huPPARα (“hu” indicates “human”) and huPPARγ. These studies provide in vitro data concerning efficacy and selectivity of compounds of the invention. Furthermore, binding and cotransfection data for compounds of the invention were compared with corresponding data for marketed compounds that act on either huPPARα or huPPARγ.

Turning to `Cc1oc(-c2cccc(Br)c2)nc1CCOc1ccc(CC(C)(Oc2ccccc2)C(=O)O)cc1` (stereo not drawn) [Example 8, 3-(4-{2-[2-(3-Bromophenyl)-5-methyloxazol-4-yl]ethoxy}phenyl)-2-methyl-2-phenoxypropionic acid], the change in vivo at 30 mg/kg in the experiment on HuapoAI transgenic mice was found to be 34%. Besides, in the experiment with huPPARα, the “huPPARα CTF Efficacy” value worked out at 54%.
For the molecule `Cc1oc(C2(C)CCCCC2)nc1CCOc1ccc(CC(C)(Oc2ccccc2)C(=O)O)cc1` (stereo not drawn) [Example 9, 2-Methyl-3-(4-{2-[5-methyl-2-(1-methylcyclohexyl)oxazol-4-yl]ethoxy}phenyl)-2-phenoxypropionic acid], in the experiment with HuapoAI transgenic mice, the change in vivo at 30 mg/kg was determined as 123% and the inhibition in vivo at 30 mg/kg was determined as 19.8%. Further, in the experiment on huPPARα, the “huPPARα CTF Efficacy” value came to 61%.
The corresponding values for `Cc1oc(-c2cccs2)nc1CCOc1ccc(CC(C)(Oc2ccc(C(C)(C)C)cc2)C(=O)O)cc1` (stereo not drawn) [Example 17, 2-Methyl-3-{4-[2-(5-methyl-2-thiophen-2-yl-oxazol-4-yl)-ethoxy]-phenyl}-2-(4-tert-butylphenoxy)-propionic acid] are 119%, 78.7% and 129%.
For the molecule `Cc1oc(C2CCCCC2)nc1CCOc1ccc(CC(C)(Oc2ccc(C(C)(C)C)cc2)C(=O)O)cc1` (stereo not drawn) [Example 18, 2-Methyl-3-(4-{2-[5-methyl-2-cyclohexylyl-oxazol-4-yl]-ethoxy}-phenyl)-2-(4-tert-butylphenoxy)-propionic acid], in the experiment on HuapoAI transgenic mice, the change in vivo at 30 mg/kg was determined as 141% and the inhibition in vivo at 30 mg/kg is 69%. In addition, the “huPPARα CTF Efficacy” value with huPPARα is 102%.
In the same order, the values of `COc1ccc(OC(C)(Cc2ccc(OCCc3nc(-c4cccs4)oc3C)cc2)C(=O)O)cc1` (stereo not drawn) [Example 19, 2-Methyl-3-{4-[2-(5-methyl-2-thiophen-2-yl-oxazol-4-yl)-ethoxy]-phenyl}-2-(4-methoxyphenoxy)-propionic acid] are 89%, 40% and 64%.
In the same order, the values of `Cc1oc(-c2cccs2)nc1CCOc1ccc(CC(C)(Oc2cccc(F)c2)C(=O)O)cc1` (stereo not drawn) [Example 22, 2-(3-Fluoro-phenoxy)-2-methyl-3-{4-[2-(5-methyl-2-thiophen-2-yl-oxazol-4-yl)-ethoxy]-phenyl}-propionic acid] are 29%, 19.5% and 51%.
The corresponding values for `Cc1oc(C2CCCCC2)nc1CCOc1ccc(CC(C)(Oc2cccc(F)c2)C(=O)O)cc1` (stereo not drawn) [Example 23, 2-(3-Fluoro-phenoxy)-2-methyl-3-{4-[2-(5-methyl-2-cyclohexyl-oxazol-4-yl)-ethoxy]-phenyl}-propionic acid] are 54%, 52.5% and 40%.
As for `Cc1oc(-c2cccs2)nc1CCOc1ccc(CC(C)(Oc2cccc(C(C)(C)C)c2)C(=O)O)cc1` (stereo not drawn) [Example 25, 2-(3-tert-Butyl-phenoxy)-2-methyl-3-{4-[2-(5-methyl-2-thiophen-2-yl-oxazol-4-yl)-ethoxy]-phenyl}-propionic acid], in the experiment with HuapoAI transgenic mice, the change in vivo at 30 mg/kg was 8% and the inhibition in vivo at 30 mg/kg was 35.5%. Moreover, the “huPPARα CTF Efficacy” value in the experiment with huPPARα is listed as 95%.
Regarding `Cc1oc(-c2cccs2)nc1CCOc1ccc(CC(C)(Oc2ccccc2F)C(=O)O)cc1` (stereo not drawn) [Example 27, 2-(2-Fluoro-phenoxy)-2-methyl-3-{4-[2-(5-methyl-2-thiophen-2-yl-oxazol-4-yl)-ethoxy]-phenyl}-propionic acid], in the experiment with HuapoAI transgenic mice, the change in vivo at 30 mg/kg was found to be 49% and the inhibition in vivo at 30 mg/kg was 36.8%. In addition, the “huPPARα CTF Efficacy” value in the experiment on huPPARα came out at 46%.
On to `Cc1oc(-c2ccccc2)nc1CCOc1ccc(CC(C)(Oc2ccc(Cl)cc2)C(=O)O)cc1` (stereo not drawn) [Example 29, 2-(4-Chloro-phenoxy)-2-methyl-3-{4-[2-(5-methyl-2-phenyl-oxazol-4-yl)-ethoxy]-phenyl}-propionic acid], for which the change in vivo at 30 mg/kg with HuapoAI transgenic mice was determined as 78%. In addition, in the experiment with huPPARα, the “huPPARα CTF Efficacy” value is listed as 65%.
For `Cc1oc(C2CCCCC2)nc1CCOc1ccc(CC(C)(Oc2ccc(C3CCCCC3)cc2)C(=O)O)cc1` (stereo not drawn) [Example 34, 3-{4-[2-(2-Cyclohexyl-5-methyl-oxazol-4-yl)-ethoxy]-phenyl}-2-(4-cyclohexyl-phenoxy)-2-methyl-propionic acid], in the experiment on HuapoAI transgenic mice, the change in vivo at 30 mg/kg turned out to be 95% and the inhibition in vivo at 30 mg/kg amounted to 57.1%. Also, the “huPPARα CTF Efficacy” value with huPPARα turned out to be 112%.
The corresponding values for `Cc1ccc(OC(C)(Cc2ccc(OCCc3nc(C4CCCCC4)oc3C)cc2)C(=O)O)cc1C` (stereo not drawn) [Example 35, 3-{4-[2-(2-Cyclohexyl-5-methyl-oxazol-4-yl)-ethoxy]-phenyl}-2-(3,4-dimethyl-phenoxy)-2-methyl-propionic acid] are 77%, 32.3% and 78%.
In the same order, the values of `Cc1ccc(OC(C)(Cc2ccc(OCCc3nc(-c4cccs4)oc3C)cc2)C(=O)O)cc1C` (stereo not drawn) [Example 36, 2-(3,4-Dimethyl-phenoxy)-2-methyl-3-{4-[2-(5-methyl-2-thiophen-2-yl-oxazol-4-yl)-ethoxy]-phenyl}-propionic acid] are 30%, 23% and 70%.
The corresponding values for `Cc1ccc(OC(C)(Cc2ccc(OCCc3nc(-c4cccs4)oc3C)cc2)C(=O)O)cc1` (stereo not drawn) [Example 40, 2-Methyl-3-{4-[2-(5-methyl-2-thiophen-2-yl-oxazol-4-yl)-ethoxy]-phenyl}-2-p-tolyloxy-propionic acid] are 131%, 77.6% and 77%.
As to `Cc1ccc(OC(C)(Cc2ccc(OCCc3nc(C4CCCCC4)oc3C)cc2)C(=O)O)cc1` (stereo not drawn) [Example 41, 3-{4-[2-(2-Cyclohexyl-5-methyl-oxazol-4-yl)-ethoxy]-phenyl}-2-methyl-2-p-tolyloxy-propionic acid], in the experiment on HuapoAI transgenic mice, the change in vivo at 30 mg/kg stood at 96% and the inhibition in vivo at 30 mg/kg turned out to be 57.8%. For the same molecule, the “huPPARα CTF Efficacy” value with huPPARα is 49%.
In the case of `Cc1oc(C2CCCCC2)nc1CCOc1ccc(CC(C)(Oc2ccc(OC(F)(F)F)cc2)C(=O)O)cc1` (stereo not drawn) [Example 44, 3-{4-[2-(2-Cyclohexyl-5-methyl-oxazol-4-yl)-ethoxy]-phenyl}-2-methyl-2-(4-trifluoromethoxy-phenoxy)-propionic acid], the change in vivo at 30 mg/kg with HuapoAI transgenic mice was 151%. Also, the “huPPARα CTF Efficacy” value in the experiment with huPPARα came out at 54%.
On to `Cc1oc(-c2cccs2)nc1CCOc1ccc(CC(C)(Oc2ccc(C(F)(F)F)cc2)C(=O)O)cc1` (stereo not drawn) [Example 51, 2-Methyl-3-{4-[2-(5-methyl-2-thiophen-2-yl-oxazol-4-yl)-ethoxy]-phenyl}-2-(4-trifluoromethyl-phenoxy)-propionic acid], for which, in the experiment with HuapoAI transgenic mice, the change in vivo at 30 mg/kg was determined as 122% and the inhibition in vivo at 30 mg/kg was found to be 72.8%. Also, in the experiment with huPPARα, the “huPPARα CTF Efficacy” value was 152%.
The corresponding values for `Cc1oc(C2CCCCC2)nc1CCOc1ccc(CC(C)(Oc2ccc(C(F)(F)F)cc2)C(=O)O)cc1` (stereo not drawn) [Example 52, 3-{4-[2-(2-Cyclohexyl-5-methyl-oxazol-4-yl)-ethoxy]-phenyl}-2-methyl-2-(4-trifluoromethyl-phenoxy)-propionic acid] are 185%, 75.9% and 108%.
In the same order, the values of `Cc1oc(C2CCCCC2)nc1CCOc1ccc(CC(C)(Oc2ccc(F)c(F)c2)C(=O)O)cc1` (stereo not drawn) [Example 58, 3-{4-[2-(2-Cyclohexyl-5-methyl-oxazol-4-yl)-ethoxy]-phenyl}-2-(3,4-difluoro-phenoxy)-2-methyl-propionic acid] are 74%, 26.5% and 149%.
